The test addresses IDH1 R132H (Homo sapiens, UniProt O75874, R132H). The experiment in a line: Assay for IDH1 R132H inhibitors (NADPH/aKG, resazurin detection). The test is classed as biochemical. Particulars: enzyme assay of Example 12; read-out: IDH1R132H IC50. The procedure, abridged:
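Compound added to substrate mix (8 uM NADPH, 2 mM aKG), then enzyme mix (0.2 μg/ml IDH1 R132H); 50 min RT in 20 mM Tris pH 7.5, 150 mM NaCl, 10 mM MgCl2, 0.03% BSA. Resazurin detection mix (30 μM) 5 min RT; resorufin fluorescence Ex544/Em590.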
For orientation: Resazurin is reduced to fluorescent resorufin, in cell work by metabolically active cells.

pIC50: −log10 of the molar value.

Sequence of IDH1 R132H (O75874 whole entry R132H): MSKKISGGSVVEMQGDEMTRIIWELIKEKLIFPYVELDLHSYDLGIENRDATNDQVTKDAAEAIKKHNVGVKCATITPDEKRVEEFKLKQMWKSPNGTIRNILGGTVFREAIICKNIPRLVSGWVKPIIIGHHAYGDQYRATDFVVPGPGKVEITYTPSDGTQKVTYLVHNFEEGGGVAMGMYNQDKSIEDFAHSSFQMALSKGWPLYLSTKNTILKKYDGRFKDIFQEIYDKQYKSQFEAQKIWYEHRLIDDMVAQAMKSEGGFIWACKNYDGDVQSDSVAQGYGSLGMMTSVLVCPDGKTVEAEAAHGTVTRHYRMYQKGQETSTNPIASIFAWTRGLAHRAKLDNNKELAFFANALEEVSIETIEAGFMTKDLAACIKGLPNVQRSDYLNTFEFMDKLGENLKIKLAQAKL

Take `COCCC(=O)N1CCN(c2nc(C3CC3)c(-c3cccnc3F)c(C)c2C#N)C[C@H]1C` [Compound 369, (R)-2-cyclopropyl-2′-fluoro-6-[4-(3-methoxy-propionyl)-3-methyl-piperazin-1-yl]-4-methyl-[3,3′]bipyridinyl-5-carbonitrile]: the pIC50 (usually the IC50 on a negative log10 scale, so that one unit is a factor of ten) was 6.00 to 6.30.
As to `COCCC(=O)N1CCN(c2nc(C3CC3)c(-c3ccc4nnnn4c3)cc2C#N)C[C@H]1C` [Compound 370, (R)-6-cyclopropyl-2-[4-(3-methoxy-propionyl)-3-methyl-piperazin-1-yl]-5-tetrazolo[1,5-a]pyridin-6-yl-nicotinonitrile], the pIC50 is 6.00 to 6.30.
The figure for `COCCC(=O)N1CCN(c2nc(C3CC3)c(-c3ccnn3C)cc2C#N)C[C@H]1C` [Compound 371, (R)-6-cyclopropyl-2-[4-(3-methoxy-propionyl)-3-methyl-piperazin-1-yl]-5-(2-methyl-2H-pyrazol-3-yl)-nicotinonitrile] is 6.00 to 6.30; for `COCCC(=O)N1CCN(c2nc(C3CC3)c(-c3ccccc3CO)c(C)c2C#N)C[C@H]1C` [Compound 372, (R)-6-cyclopropyl-5-(2-hydroxymethyl-phenyl)-2-[4-(3-methoxy-propionyl)-3-methyl-piperazin-1-yl]-4-methyl-nicotinonitrile] it is above 6.30.
For the molecule `COCCC(=O)N1CCN(c2nc(C3CC3)c(N3CCOCC3)cc2C#N)C[C@H]1C` [Compound 375, (R)-6-cyclopropyl-2-(4-(3-methoxypropanoyl)-3-methylpiperazin-1-yl)-5-morpholinonicotinonitrile], the pIC50 is 6.00 to 6.30.
With `COCCC(=O)N1CCN(c2nc(C3CC3)c(N3CCN(CC4CC4)CC3)cc2C#N)C[C@H]1C` [Compound 378, (R)-6-cyclopropyl-5-(4-(cyclopropylmethyl)piperazin-1-yl)-2-(4-(3-methoxypropanoyl)-3-methylpiperazin-1-yl)nicotinonitrile], the pIC50 was above 6.30.
Turning to `COCCC(=O)N1CCN(c2nc(C3CC3)c(N3CCN(C(=O)c4ccccc4)CC3)cc2C#N)C[C@H]1C` [Compound 379, (R)-5-(4-benzoylpiperazin-1-yl)-6-cyclopropyl-2-(4-(3-methoxypropanoyl)-3-methylpiperazin-1-yl)nicotinonitrile], the pIC50 was 6.00 to 6.30.
Consider `COCCC(=O)N1CCN(c2nc(C3CC3)c(-c3ccc4cn[nH]c4c3)cc2C#N)C[C@H]1C` [Compound 385, (R)-6-cyclopropyl-5-(1H-indazol-6-yl)-2-(4-(3-methoxypropanoyl)-3-methylpiperazin-1-yl)nicotinonitrile], for which the pIC50 is 6.00 to 6.30.
Next, `COCCC(=O)N1CCN(c2nc(C3CC3)c(-c3ccc(F)cc3)cc2-c2nnco2)C[C@H]1C` [Compound 392, (R)-1-(4-(6-cyclopropyl-5-(4-fluorophenyl)-3-(1,3,4-oxadiazol-2-yl)pyridin-2-yl)-2-methylpiperazin-1-yl)-3-methoxypropan-1-one]: above 6.30; `COCCC(=O)N1CCN(c2nc(C3CC3)c(-c3cc4ccccc4[nH]3)cc2C#N)C[C@H]1C` [Compound 394, (R)-6-cyclopropyl-5-(1H-indol-2-yl)-2-[4-(3-methoxy-propionyl)-3-methyl-piperazin-1-yl]-nicotinonitrile]: 6.00 to 6.30; `COCCC(=O)N1CCN(c2nc(C3CC3)c(-c3csc(NC(=O)OC(C)(C)C)n3)cc2C#N)C[C@H]1C` [Compound 395, (R)-(4-{5-cyano-2-cyclopropyl-6-[4-(3-methoxy-propionyl)-3-methyl-piperazin-1-yl]-pyridin-3-yl}-thiazol-2-yl)-carbamic acid tert-butyl ester]: 6.00 to 6.30.
Regarding `COCCC(=O)N1CCN(c2nc(C3CC3)c(-c3ccc(N4CCNCC4)nc3)cc2C#N)C[C@H]1C` [Compound 396, (R)-2-cyclopropyl-6-[4-(3-methoxy-propionyl)-3-methyl-piperazin-1-yl]-6′-piperazin-1-yl-[3,3′]bipyridinyl-5-carbonitrile], the pIC50 was above 6.30.
Next, `N#Cc1cc(-c2cccc3cnccc23)c(C2CC2)nc1N1CCN(C(=O)C2CC2)C(C(F)(F)F)C1` (stereo not drawn) [Compound 397, 2-(4-(cyclopropanecarbonyl)-3-(trifluoromethyl)piperazin-1-yl)-6-cyclopropyl-5-(isoquinolin-5-yl)nicotinonitrile]: above 6.30; `N#Cc1cc(-c2cccc3cnccc23)c(C2CC2)nc1N1CCN(C(=O)CC(F)(F)F)C(C(F)(F)F)C1` (stereo not drawn) [Compound 399, 6-cyclopropyl-5-(isoquinolin-5-yl)-2-(3-(trifluoromethyl)-4-(3,3,3-trifluoropropanoyl)piperazin-1-yl)nicotinonitrile]: 6.00 to 6.30.
Turning to `C[C@@H]1CN(c2nc(C3CC3)c(-c3cccc4cnccc34)cc2C#N)CCN1C(=O)CCO` [Compound 402, (R)-6-cyclopropyl-2-(4-(3-hydroxypropanoyl)-3-methylpiperazin-1-yl)-5-(isoquinolin-5-yl)nicotinonitrile], the pIC50 is above 6.30.
In the case of `COCCC(=O)N1CCN(c2nc(C3CC3)c(-c3cccc(NS(=O)(=O)CCl)c3)cc2C#N)C[C@H]1C` [Compound 404, (R)-1-chloro-N-(3-(5-cyano-2-cyclopropyl-6-(4-(3-methoxypropanoyl)-3-methylpiperazin-1-yl)pyridin-3-yl)phenyl)methanesulfonamide], the pIC50 was 6.00 to 6.30.
In the case of `COCCC(=O)N1CCN(c2nc(C3CC3)c(-c3cccc(F)c3F)c(C)c2C#N)C[C@H]1C` [Compound 405, (R)-6-cyclopropyl-5-(2,3-difluoro-phenyl)-2-[4-(3-methoxy-propionyl)-3-methyl-piperazin-1-yl]-4-methyl-nicotinonitrile], the pIC50 is above 6.30.
For `COCCC(=O)N1CCN(c2nc(C3CC3)c(-c3cccc(N(C)C)c3)cc2C#N)C[C@H]1C` [Compound 413, (R)-6-cyclopropyl-5-(3-(dimethylamino)phenyl)-2-(4-(3-methoxypropanoyl)-3-methylpiperazin-1-yl)nicotinonitrile], the pIC50 is 6.00 to 6.30.
Turning to `CNc1cccc(-c2cc(C#N)c(N3CCN(C(=O)CCOC)[C@H](C)C3)nc2C2CC2)c1` [Compound 414, (R)-6-cyclopropyl-2-(4-(3-methoxypropanoyl)-3-methylpiperazin-1-yl)-5-(3-(methylamino)phenyl)nicotinonitrile], the pIC50 is 6.00 to 6.30.
Regarding `N#Cc1cc(-c2cccc3cnccc23)c(C2CC2)nc1N1CCN(C(=O)C2CC2)C(C(F)F)C1` (stereo not drawn) [Compound 422, 2-(4-(cyclopropanecarbonyl)-3-(difluoromethyl)piperazin-1-yl)-6-cyclopropyl-5-(isoquinolin-5-yl)nicotinonitrile], the pIC50 was 6.00 to 6.30.
With `N#Cc1cc(-c2cccc3cnccc23)c(C2CC2)nc1N1CCN(C(=O)C2CC2)C(CC(F)(F)F)C1` (stereo not drawn) [Compound 423, 2-(4-(cyclopropanecarbonyl)-3-(2,2,2-trifluoroethyl)piperazin-1-yl)-6-cyclopropyl-5-(isoquinolin-5-yl)nicotinonitrile], the pIC50 was 6.00 to 6.30.
The figure for `COCCC(=O)N1CCN(c2nc(C3CC3)c(-c3cccc4c(O)ncnc34)cc2C#N)C[C@H]1C` [Compound 430] is 5.00 to 6.00; for `CCOC(=O)[C@@H]1C[C@H]1C(=O)N1CCN(c2nc(C3CC3)c(-c3cccc4cnccc34)cc2C#N)C[C@H]1C` [Compound 435, (1R,2R)-ethyl 2-((R)-4-(3-cyano-6-cyclopropyl-5-(isoquinolin-5-yl)pyridin-2-yl)-2-methylpiperazine-1-carbonyl)cyclopropanecarboxylate] it is 6.00 to 6.30; for `COCCC(=O)N1CCN(c2nc(C3CC3)c(-c3cccc4nonc34)cc2C#N)C[C@H]1C` [Compound 437, (R)-5-benzo[1,2,5]oxadiazol-4-yl-6-cyclopropyl-2-[4-(3-methoxy-propionyl)-3-methyl-piperazin-1-yl]-nicotinonitrile] it is 6.00 to 6.30.
As for `C=CS(=O)(=O)N(c1cccc(-c2cc(C#N)c(N3CCN(C(=O)CCOC)[C@H](C)C3)nc2C2CC2)c1)S(=O)(=O)C=C` [Compound 440, (R)—N-(3-(5-cyano-2-cyclopropyl-6-(4-(3-methoxypropanoyl)-3-methylpiperazin-1-yl)pyridin-3-yl)phenyl)-N-(vinylsulfonyl)ethenesulfonamide], the pIC50 is above 6.30.
Regarding `COCCC(=O)N1CCN(c2nc(C3CC3)c(-c3cccc(NC(=O)/C=C/CN(C)C)c3)cc2C#N)C[C@H]1C` [Compound 441, (R,E)-N-(3-(5-cyano-2-cyclopropyl-6-(4-(3-methoxypropanoyl)-3-methylpiperazin-1-yl)pyridin-3-yl)phenyl)-4-(dimethylamino)but-2-enamide], the negative-log IC50 (pIC50) was 6.00 to 6.30.
`CCC(=O)Nc1cccc(-c2cc(C#N)c(N3CCN(C(=O)C4CC4)[C@H](C4CC4)C3)nc2C2CC2)c1` [Compound 450, (R)—N-(3-(5-cyano-6-(4-(cyclopropanecarbonyl)-3-cyclopropylpiperazin-1-yl)-2-cyclopropylpyridin-3-yl)phenyl)propionamide]: the pIC50 was 6.00 to 6.30.
As for `COCCC(=O)N1CCN(c2nc(C3CC3)c(-c3cccc(N(C)C(=O)C(F)F)c3)cc2C#N)C[C@H]1C` [Compound 455], the pIC50 is 6.00 to 6.30.
Next, `COCCC(=O)N1CCN(c2nc(C3CC3)c(-c3cccc4c3CN(C)C4=O)cc2C#N)C[C@H]1C` [Compound 460, (R)-6-Cyclopropyl-2-(4-(3-methoxypropanoyl)-3-methylpiperazin-1-yl)-5-(2-methyl-1-oxoisoindolin-4-yl)nicotinonitrile]: above 6.30.
Next, `C[C@@H]1CN(c2nc(C3CC3)c(-c3cccc4c3CN(C)C4=O)cc2C#N)CCN1C(=O)C1CC1` [Compound 461, (R)-2-(4-(cyclopropanecarbonyl)-3-methylpiperazin-1-yl)-6-cyclopropyl-5-(2-methyl-1-oxoisoindolin-4-yl)nicotinonitrile]: 6.00 to 6.30.

Source of the values: patent US9856279B2 (AGIOS PHARMACEUTICALS, INC, priority 2011, dated 2018).
